The results in this text go back to patent US6350879B1, “Benziso-N (L-histidine methylester)-thiazolone, process for the preparation thereof, and use thereof for RNA polymerase inhibition” (Council of Scientific and Industrial Research, priority 2000, dated 2002).

One data set addresses E. coli RNA polymerase (Escherichia coli, UniProt P0A8T7). The data set can be described thus: RNA polymerase inhibition, radioisotope (3H UTP) labelling transcription assay with calf thymus DNA. It is filed as biochemical. The note with it: 0.8 μM of 3 with 0.4 μM E. coli RNA polymerase, incubated 15 min, dialysed overnight; native enzyme count = 100%. As for the experimental part: In a typical experiment, the course of transcription of calf thymus DNA by E. coli RNA polymerase was monitored in the presence and absence of the redox system 3. The enzyme aliquot after admixing with 3 was incubated for 15 minutes and then dialyzed overnight. A general transcription assay was then carried out in a medium, which contained ^3H UTP in addition to other nucleotides. The amount of radioactive UTP (uridine triphaspate) incorporated in the transcribed RNA was monitored by scintillation counter and the count, when compared to that obtained on using native enzyme gave the percentage loss of activity.
A mixture containing 0.8 μM solution of 3 (5 μL from 8 μM stock in methanol) and 0.4 μM of E. coli RNA polymerase (5 μl from 4 μM stock) in 1×transcription buffer ^a (5 μL) and 35 μL of milliQ water was incubated for 15 min, and dialysed ^b overnight, 4×Transcription assay mixture ^c (10 μL) was diluted with 10 μL of milliQ water and admixed with 20 μL of treated and dialyzed enzyme. The mixture was incubated for 20 minutes and spotted on to a DE81 filter paper strip ^d, which was pre-coated with EDTA to arrest further transcription. The filter paper strips were allowed to air dry for three hours, washed successively with 5% Na2HPO4 solution (3×200 mL, 10 min. each), distilled water (2×200 mL, 5 min. each) and then with ethanol (2×75 mL). […]

Data set [1] in a line: Stability at normal conditions. In kind it is physicochemical.

Molecules are shown by their SMILES.

Chain of E. coli RNA polymerase (P0A8T7 whole entry): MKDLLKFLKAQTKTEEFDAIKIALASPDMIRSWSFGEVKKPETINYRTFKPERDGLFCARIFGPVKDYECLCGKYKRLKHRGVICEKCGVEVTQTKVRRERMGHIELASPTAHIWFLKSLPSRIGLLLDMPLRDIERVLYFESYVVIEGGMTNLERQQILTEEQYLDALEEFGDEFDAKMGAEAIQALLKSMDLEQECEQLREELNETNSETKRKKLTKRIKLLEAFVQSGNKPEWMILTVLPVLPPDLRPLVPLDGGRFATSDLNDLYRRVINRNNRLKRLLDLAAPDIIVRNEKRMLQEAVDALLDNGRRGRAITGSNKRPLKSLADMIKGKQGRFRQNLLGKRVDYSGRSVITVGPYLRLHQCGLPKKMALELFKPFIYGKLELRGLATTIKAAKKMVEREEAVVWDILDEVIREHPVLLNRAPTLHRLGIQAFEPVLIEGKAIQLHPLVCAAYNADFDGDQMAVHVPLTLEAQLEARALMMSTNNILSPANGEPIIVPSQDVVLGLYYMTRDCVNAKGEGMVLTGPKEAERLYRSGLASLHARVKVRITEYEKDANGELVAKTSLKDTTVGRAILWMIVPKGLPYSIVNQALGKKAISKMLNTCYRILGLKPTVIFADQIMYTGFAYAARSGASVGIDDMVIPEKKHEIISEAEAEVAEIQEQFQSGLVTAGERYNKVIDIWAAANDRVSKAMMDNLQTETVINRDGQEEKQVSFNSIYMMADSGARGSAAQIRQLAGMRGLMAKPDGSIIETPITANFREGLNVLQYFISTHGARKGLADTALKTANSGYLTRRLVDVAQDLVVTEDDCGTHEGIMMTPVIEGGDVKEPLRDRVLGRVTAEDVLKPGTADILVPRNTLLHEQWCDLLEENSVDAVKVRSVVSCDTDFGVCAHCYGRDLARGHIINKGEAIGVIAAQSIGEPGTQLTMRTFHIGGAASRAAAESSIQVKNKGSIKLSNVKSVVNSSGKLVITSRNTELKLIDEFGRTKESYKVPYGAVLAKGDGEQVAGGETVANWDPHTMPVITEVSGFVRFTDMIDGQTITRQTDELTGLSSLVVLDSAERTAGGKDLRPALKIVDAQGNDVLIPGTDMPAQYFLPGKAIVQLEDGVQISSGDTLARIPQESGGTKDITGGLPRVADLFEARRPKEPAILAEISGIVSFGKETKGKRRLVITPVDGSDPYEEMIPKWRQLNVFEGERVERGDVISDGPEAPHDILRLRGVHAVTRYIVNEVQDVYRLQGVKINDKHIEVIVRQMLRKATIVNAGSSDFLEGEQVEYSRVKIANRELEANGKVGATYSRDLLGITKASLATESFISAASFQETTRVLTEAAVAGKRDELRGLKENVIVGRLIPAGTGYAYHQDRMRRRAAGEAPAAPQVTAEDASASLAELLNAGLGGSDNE
Chain of E. coli RNA polymerase (P0A8V2 whole entry partner): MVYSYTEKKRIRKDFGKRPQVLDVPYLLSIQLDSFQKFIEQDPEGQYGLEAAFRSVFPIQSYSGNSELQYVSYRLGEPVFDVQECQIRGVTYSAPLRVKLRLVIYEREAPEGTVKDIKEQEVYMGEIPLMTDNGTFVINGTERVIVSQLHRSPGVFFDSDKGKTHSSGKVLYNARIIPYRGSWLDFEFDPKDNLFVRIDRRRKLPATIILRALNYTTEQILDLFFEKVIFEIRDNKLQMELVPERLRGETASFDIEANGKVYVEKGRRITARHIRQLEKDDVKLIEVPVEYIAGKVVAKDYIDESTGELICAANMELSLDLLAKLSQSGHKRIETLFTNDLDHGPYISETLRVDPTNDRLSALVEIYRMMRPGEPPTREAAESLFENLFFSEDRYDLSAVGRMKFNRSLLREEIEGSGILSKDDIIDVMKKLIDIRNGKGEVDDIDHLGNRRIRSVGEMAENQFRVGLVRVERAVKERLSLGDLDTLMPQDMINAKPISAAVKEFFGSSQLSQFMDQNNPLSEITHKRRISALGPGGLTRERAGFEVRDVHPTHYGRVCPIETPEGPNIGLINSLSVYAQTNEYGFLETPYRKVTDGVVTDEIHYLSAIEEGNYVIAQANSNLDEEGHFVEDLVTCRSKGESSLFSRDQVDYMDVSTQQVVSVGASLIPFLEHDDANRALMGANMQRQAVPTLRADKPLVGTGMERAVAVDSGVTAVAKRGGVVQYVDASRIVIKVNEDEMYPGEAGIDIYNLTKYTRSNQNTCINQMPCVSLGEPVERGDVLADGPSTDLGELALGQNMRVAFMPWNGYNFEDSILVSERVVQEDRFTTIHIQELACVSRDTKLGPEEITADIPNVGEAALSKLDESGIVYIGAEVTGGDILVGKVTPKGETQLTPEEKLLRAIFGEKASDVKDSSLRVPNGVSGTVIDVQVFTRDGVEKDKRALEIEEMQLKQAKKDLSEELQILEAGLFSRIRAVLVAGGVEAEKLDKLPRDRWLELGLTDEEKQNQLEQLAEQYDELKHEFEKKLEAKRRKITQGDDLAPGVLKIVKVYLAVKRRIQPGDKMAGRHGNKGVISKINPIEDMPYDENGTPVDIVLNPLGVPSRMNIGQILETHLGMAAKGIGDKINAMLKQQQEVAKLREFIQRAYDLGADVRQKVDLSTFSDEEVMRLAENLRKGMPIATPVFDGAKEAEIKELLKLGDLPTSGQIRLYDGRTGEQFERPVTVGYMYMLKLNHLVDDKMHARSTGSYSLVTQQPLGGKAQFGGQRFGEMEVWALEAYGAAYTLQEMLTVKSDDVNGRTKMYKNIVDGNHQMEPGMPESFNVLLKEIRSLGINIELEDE
Chain of E. coli RNA polymerase (P0A7Z4 whole entry partner): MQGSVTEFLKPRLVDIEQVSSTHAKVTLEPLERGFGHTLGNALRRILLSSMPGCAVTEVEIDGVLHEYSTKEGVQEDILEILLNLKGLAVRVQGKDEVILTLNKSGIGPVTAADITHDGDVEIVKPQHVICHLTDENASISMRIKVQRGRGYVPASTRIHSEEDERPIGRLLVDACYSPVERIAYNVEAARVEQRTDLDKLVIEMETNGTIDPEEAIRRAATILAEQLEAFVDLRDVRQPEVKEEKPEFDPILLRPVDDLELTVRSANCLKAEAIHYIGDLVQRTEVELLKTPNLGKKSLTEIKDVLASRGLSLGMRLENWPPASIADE
Chain of E. coli RNA polymerase (P00579 whole entry partner): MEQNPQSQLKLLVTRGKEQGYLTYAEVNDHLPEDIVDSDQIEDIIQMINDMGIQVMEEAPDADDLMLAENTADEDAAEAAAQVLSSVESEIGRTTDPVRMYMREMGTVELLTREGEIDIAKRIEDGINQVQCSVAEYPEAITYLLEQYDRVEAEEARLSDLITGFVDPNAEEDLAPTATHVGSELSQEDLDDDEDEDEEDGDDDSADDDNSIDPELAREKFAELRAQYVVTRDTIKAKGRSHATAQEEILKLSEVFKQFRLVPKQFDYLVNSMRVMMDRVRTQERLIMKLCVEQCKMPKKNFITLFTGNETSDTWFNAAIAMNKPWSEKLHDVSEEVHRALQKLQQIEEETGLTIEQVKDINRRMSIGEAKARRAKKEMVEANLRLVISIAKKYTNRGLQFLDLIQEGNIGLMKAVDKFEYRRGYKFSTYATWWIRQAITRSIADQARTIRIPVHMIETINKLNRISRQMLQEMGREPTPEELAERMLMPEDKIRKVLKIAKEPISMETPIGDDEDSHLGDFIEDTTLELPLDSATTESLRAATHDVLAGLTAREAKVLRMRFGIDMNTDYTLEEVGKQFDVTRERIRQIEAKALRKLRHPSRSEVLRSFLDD

`COC(=O)C(Cc1cnc[nH]1)n1sc2ccccc2c1=O` [compound 3, benziso-N(L-histidine methylester)-thiazolone]: on E. coli RNA polymerase, the “activity compared to the native enzyme” value is given as 53% and the inhibition of activity worked out at 47%. For the same compound, the stability result in data set [1] is “stable at normal conditions”.
